PubChem BioAssay (NCI)
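Following 48 hours of exposure in 96-well plates, responses at five concentrations were used to interpolate endpoints linearly. At the GI50, growth is halved. TGI: total growth inhibition.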

Legend:
Test in all cases: NCI anticancer screen, dose series, 48 h
EKVX NSCLC = tested on: EKVX NSCLC
DU-145 prostate = tested on: DU-145 prostate
MALME-3M melanoma = tested on: MALME-3M melanoma
TK-10 renal = tested on: TK-10 renal
NCI-H522 lung = tested on: NCI-H522 lung
HT29 colon = tested on: HT29 colon
UACC-257 melanoma = tested on: UACC-257 melanoma
RPMI-8226 leukemia = tested on: RPMI-8226 leukemia
ACHN renal = tested on: ACHN renal
SNB-75 CNS = tested on: SNB-75 CNS
LOX IMVI melanoma = tested on: LOX IMVI melanoma
HCT-15 colon = tested on: HCT-15 colon
MOLT-4 leukemia = tested on: MOLT-4 leukemia
SK-OV-3 ovarian = tested on: SK-OV-3 ovarian
UO-31 renal = tested on: UO-31 renal
SR leukemia = tested on: SR leukemia
HOP-92 NSCLC = tested on: HOP-92 NSCLC
KM12 colon = tested on: KM12 colon
OVCAR-3 ovarian = tested on: OVCAR-3 ovarian
SK-MEL-2 melanoma = tested on: SK-MEL-2 melanoma
COLO 205 colon = tested on: COLO 205 colon
SF-539 CNS = tested on: SF-539 CNS
SNB-19 CNS = tested on: SNB-19 CNS
CAKI-1 renal = tested on: CAKI-1 renal
HS 578T breast = tested on: HS 578T breast
A498 renal = tested on: A498 renal
MDA-MB-435 = tested on: MDA-MB-435
HCT-116 colon = tested on: HCT-116 colon
BT-549 breast = tested on: BT-549 breast
K-562 leukemia = tested on: K-562 leukemia
MCF7 breast = tested on: MCF7 breast
IGROV1 ovarian = tested on: IGROV1 ovarian
HOP-62 NSCLC = tested on: HOP-62 NSCLC
OVCAR-8 ovarian = tested on: OVCAR-8 ovarian
NCI-H23 lung = tested on: NCI-H23 lung
M14 melanoma = tested on: M14 melanoma
MDA-MB-231 breast = tested on: MDA-MB-231 breast
NCI-H460 lung = tested on: NCI-H460 lung
SN12C renal = tested on: SN12C renal
RXF 393 renal = tested on: RXF 393 renal
HL-60(TB) leukemia = tested on: HL-60(TB) leukemia
786-0 renal = tested on: 786-0 renal
NCI-H226 lung = tested on: NCI-H226 lung
UACC-62 melanoma = tested on: UACC-62 melanoma
SK-MEL-5 melanoma = tested on: SK-MEL-5 melanoma
SK-MEL-28 melanoma = tested on: SK-MEL-28 melanoma
SF-295 CNS = tested on: SF-295 CNS
HCC-2998 colon = tested on: HCC-2998 colon
OVCAR-5 ovarian = tested on: OVCAR-5 ovarian
SW-620 colon = tested on: SW-620 colon
A549 NSCLC = tested on: A549 NSCLC
OVCAR-4 ovarian = tested on: OVCAR-4 ovarian
PC-3 prostate = tested on: PC-3 prostate
NCI/ADR-RES ovarian = tested on: NCI/ADR-RES ovarian
U251 CNS = tested on: U251 CNS
T-47D breast = tested on: T-47D breast
CCRF-CEM leukemia = tested on: CCRF-CEM leukemia
SF-268 CNS = tested on: SF-268 CNS

For `COc1cc(-n2cc(-c3ccc(Cl)cc3)n(-c3ccccc3)c2=O)cc(OC)c1OC`, the GI50 (EKVX NSCLC) was 18.5 µM, the TGI (EKVX NSCLC) was over 100 µM and the GI50 (DU-145 prostate) was 43.6 µM. For the same compound, the TGI (DU-145 prostate) was over 100 µM, the GI50 (MALME-3M melanoma) was 21.2 µM and the TGI (MALME-3M melanoma) was 75.2 µM. The GI50 (TK-10 renal) was 35.5 µM, the TGI (TK-10 renal) was over 100 µM and the GI50 (NCI-H522 lung) was 18.3 µM. It also gave a TGI (NCI-H522 lung) of over 76 µM, a GI50 (HT29 colon) of 16.6 µM and a TGI (HT29 colon) of over 100 µM. For the same compound, the GI50 (UACC-257 melanoma) was 15.5 µM, the TGI (UACC-257 melanoma) was 71.9 µM and the GI50 (RPMI-8226 leukemia) was 30.6 µM. The TGI (RPMI-8226 leukemia) was over 100 µM, the GI50 (ACHN renal) was 25.8 µM and the TGI (ACHN renal) was over 100 µM. For the same compound, the GI50 (SNB-75 CNS) was 20.9 µM, the TGI (SNB-75 CNS) was over 100 µM and the GI50 (LOX IMVI melanoma) was 24.3 µM. For the same compound, the TGI (LOX IMVI melanoma) was over 100 µM, the GI50 (HCT-15 colon) was 8.54 µM and the TGI (HCT-15 colon) was over 100 µM. For the same compound, the GI50 (MOLT-4 leukemia) was 11.3 µM, the TGI (MOLT-4 leukemia) was over 51.6 µM and the GI50 (SK-OV-3 ovarian) was 30.8 µM. It also gave a TGI (SK-OV-3 ovarian) of over 90.7 µM, a GI50 (UO-31 renal) of 16.6 µM and a TGI (UO-31 renal) of over 93.9 µM. It also gave a GI50 (SR leukemia) of 4.48 µM, a TGI (SR leukemia) of over 38.4 µM and a GI50 (HOP-92 NSCLC) of 22.7 µM. It also gave a TGI (HOP-92 NSCLC) of over 100 µM, a GI50 (KM12 colon) of 23.3 µM and a TGI (KM12 colon) of over 100 µM. It also gave a GI50 (OVCAR-3 ovarian) of 16.3 µM, a TGI (OVCAR-3 ovarian) of over 86.2 µM and a GI50 (SK-MEL-2 melanoma) of 17.4 µM. The TGI (SK-MEL-2 melanoma) was 40 µM, the GI50 (COLO 205 colon) was 11.7 µM and the TGI (COLO 205 colon) was 44.2 µM. It also gave a GI50 (SF-539 CNS) of 27.1 µM, a TGI (SF-539 CNS) of over 100 µM and a GI50 (SNB-19 CNS) of 36.7 µM. For the same compound, the TGI (SNB-19 CNS) was over 100 µM, the GI50 (CAKI-1 renal) was 26.8 µM and the TGI (CAKI-1 renal) was over 89.9 µM. It also gave a GI50 (HS 578T breast) of 25.6 µM, a TGI (HS 578T breast) of over 100 µM and a GI50 (A498 renal) of 15.1 µM. For the same compound, the TGI (A498 renal) was 74.5 µM, the GI50 (MDA-MB-435) was 18.7 µM and the TGI (MDA-MB-435) was over 86.3 µM. The GI50 (HCT-116 colon) was 13.7 µM, the TGI (HCT-116 colon) was over 89 µM and the GI50 (BT-549 breast) was 17.5 µM. The TGI (BT-549 breast) was 57.3 µM, the GI50 (K-562 leukemia) was 13.6 µM and the TGI (K-562 leukemia) was over 100 µM. For the same compound, the GI50 (MCF7 breast) was 15.9 µM, the TGI (MCF7 breast) was 56 µM and the GI50 (IGROV1 ovarian) was 7.87 µM. It also gave a TGI (IGROV1 ovarian) of 36.2 µM, a GI50 (HOP-62 NSCLC) of 44.3 µM and a TGI (HOP-62 NSCLC) of over 100 µM. It also gave a GI50 (OVCAR-8 ovarian) of 27.7 µM, a TGI (OVCAR-8 ovarian) of over 100 µM and a GI50 (NCI-H23 lung) of 35.1 µM. It also gave a TGI (NCI-H23 lung) of over 100 µM, a GI50 (M14 melanoma) of 23.8 µM and a TGI (M14 melanoma) of 98.9 µM. The GI50 (MDA-MB-231 breast) was 16.4 µM, the TGI (MDA-MB-231 breast) was over 68.9 µM and the GI50 (NCI-H460 lung) was 14.9 µM. It also gave a TGI (NCI-H460 lung) of over 100 µM, a GI50 (SN12C renal) of 23.3 µM and a TGI (SN12C renal) of over 72.5 µM. The GI50 (RXF 393 renal) was 24.5 µM, the TGI (RXF 393 renal) was over 100 µM and the GI50 (HL-60(TB) leukemia) was 2.82 µM. The TGI (HL-60(TB) leukemia) was over 47.6 µM, the GI50 (786-0 renal) was 30.7 µM and the TGI (786-0 renal) was over 100 µM. It also gave a GI50 (NCI-H226 lung) of 29.9 µM, a TGI (NCI-H226 lung) of 97.1 µM and a GI50 (UACC-62 melanoma) of 4.92 µM. It also gave a TGI (UACC-62 melanoma) of 28.2 µM, a GI50 (SK-MEL-5 melanoma) of 3.99 µM and a TGI (SK-MEL-5 melanoma) of 17.7 µM. The GI50 (SK-MEL-28 melanoma) was 21.4 µM, the TGI (SK-MEL-28 melanoma) was over 100 µM and the GI50 (SF-295 CNS) was 19.3 µM. For the same compound, the TGI (SF-295 CNS) was over 100 µM, the GI50 (HCC-2998 colon) was 22.9 µM and the TGI (HCC-2998 colon) was over 100 µM. The GI50 (OVCAR-5 ovarian) was 39.4 µM, the TGI (OVCAR-5 ovarian) was over 100 µM and the GI50 (SW-620 colon) was 27.1 µM. For the same compound, the TGI (SW-620 colon) was over 100 µM, the GI50 (A549 NSCLC) was 19.3 µM and the TGI (A549 NSCLC) was over 100 µM. It also gave a GI50 (OVCAR-4 ovarian) of 17.9 µM, a TGI (OVCAR-4 ovarian) of over 100 µM and a GI50 (PC-3 prostate) of over 37.7 µM. The TGI (PC-3 prostate) was over 100 µM, the GI50 (NCI/ADR-RES ovarian) was 21.5 µM and the TGI (NCI/ADR-RES ovarian) was over 100 µM. The GI50 (U251 CNS) was 23.5 µM, the TGI (U251 CNS) was over 100 µM and the GI50 (T-47D breast) was 8.01 µM. It also gave a TGI (T-47D breast) of 74 µM, a GI50 (CCRF-CEM leukemia) of 2.67 µM and a GI50 (SF-268 CNS) of 31.2 µM. For the same compound, the TGI (SF-268 CNS) was over 100 µM.
